# Results published in patent publication US20080200454A1, “CARBON-LINKED TETRAHYDRO-PYRAZOLO-PYRIDINE MODULATORS OF CATHEPSIN S” (priority 2007, published 2008).
# pIC50: −log10 of the molar value.
# Target: Recombinant human cathepsin S (CatS) (Homo sapiens, UniProt P25774)
# Assay: Recombinant human cathepsin S (CatS) inhibition assay, fluorogenic substrate Z-Valine-Valine-Arginine-AMC;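 also: Baculovirus-expressed CatS in pH 5.0 sodium acetate buffer with DTT and NaCl, fluorescence read each minute over 20 min, inhibition derived from rate slope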
# Conditions: not given
# Recombinant human cathepsin S (CatS), sequence (P25774 115-331): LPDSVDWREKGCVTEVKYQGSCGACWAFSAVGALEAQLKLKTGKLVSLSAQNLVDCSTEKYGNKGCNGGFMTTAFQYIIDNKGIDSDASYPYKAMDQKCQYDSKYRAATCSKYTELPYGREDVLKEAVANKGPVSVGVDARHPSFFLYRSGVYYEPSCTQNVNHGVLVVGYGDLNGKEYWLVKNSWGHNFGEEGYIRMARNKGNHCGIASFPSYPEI
row,SMILES,pIC50
1,"CCNCc1cc(C#Cc2cc(-c3nn(CCCN4CCCCC4)c4c3CN(S(C)(=O)=O)CC4)ccc2Cl)ccc1Cl [Example 594, N-[2-Chloro-5-({2-chloro-5-[5-(methylsulfonyl)-1-(3-piperidin-1-ylpropyl)-4,5,6,7-tetrahydro-1H-pyrazolo[4,3-c]pyridin-3-yl]phenyl}ethynyl)benzyl]ethanamine]",7.52
2,"CN(C)CCCCc1cc(-c2nn(CCCN3CCC(N4CCCC4=O)CC3)c3c2CN(S(C)(=O)=O)CC3)ccc1Cl [Example 312, 1-(1-{3-[3-{4-Chloro-3-[4-(dimethylamino)butyl]phenyl}-5-(methylsulfonyl)-4,5,6,7-tetrahydro-1H-pyrazolo[4,3-c]pyridin-1-yl]propyl}piperidin-4-yl)pyrrolidin-2-one]",5.25
3,"NC(=O)C(=O)N1CCc2c(c(-c3ccc(Cl)c(C#Cc4ccc(Cl)c(C(=O)NCCN5CCOCC5)c4)c3)nn2CCCN2CCSCC2)C1 [Example 581, 5-[(5-{5-[Amino(oxo)acetyl]-1-(3-thiomorpholin-4-ylpropyl)-4,5,6,7-tetrahydro-1H-pyrazolo[4,3-c]pyridin-3-yl}-2-chlorophenyl)ethynyl]-2-chloro-N-(2-morpholin-4-ylethyl)benzamide]",7.52
4,"CS(=O)(=O)N1CCc2c(c(-c3ccc(Cl)c(CCCO)c3)nn2CCCN2CCOCC2)C1 [Example 302, 3-{2-Chloro-5-[5-(methylsulfonyl)-1-(3-morpholin-4-ylpropyl)-4,5,6,7-tetrahydro-1H-pyrazolo[4,3-c]pyridin-3-yl]phenyl}propan-1-ol]",4.94
5,"CC(C)(C)OC(=O)N1C[C@@H]2C[C@H]1CN2CCCn1nc(-c2ccc(Cl)c(C#Cc3ccc(CNCc4ccc(Cl)cc4)cc3)c2)c2c1CCN(S(C)(=O)=O)C2 [Example 491, 1,1-Dimethylethyl (1S,4S)-5-{3-[3-(4-chloro-3-{[4-({[(4-chlorophenyl)methyl]amino}methyl)phenyl]ethynyl}phenyl)-5-(methylsulfonyl)-4,5,6,7-tetrahydro-1H-pyrazolo[4,3-c]pyridin-1-yl]propyl}-2,5-diazabicyclo[2.2.1]heptane-2-carboxylate]",6.92
6,"CS(=O)(=O)N1CCc2c(c(-c3ccc(Cl)c(CCCNS(=O)(=O)c4cccc([N+](=O)[O-])c4)c3)nn2CCCN2CCC(N3CCCC3=O)CC2)C1 [Example 96, N-{3-[2-Chloro-5-(5-methanesulfonyl-1-{3-[4-(2-oxo-pyrrolidin-1-yl)-piperidin-1-yl]-propyl}-4,5,6,7-tetrahydro-1H-pyrazolo[4,3-c]pyridin-3-yl)-phenyl]-propyl}-3-nitro-benzenesulfonamide]",5.92
7,"CS(=O)(=O)N1CCc2c(c(-c3ccc(Cl)c(C#Cc4ccc(CNS(=O)(=O)c5ccccc5)cc4)c3)nn2CCCN2CCOCC2)C1 [Example 71, N-(4-{2-Chloro-5-[5-methanesulfonyl-1-(3-morpholin-4-yl-propyl)-4,5,6,7-tetrahydro-1H-pyrazolo[4,3-c]pyridin-3-yl]-phenylethynyl}-benzyl)-benzenesulfonamide]",6.77
8,"CS(=O)(=O)N1CCc2c(c(-c3ccc(Cl)c(C#Cc4ccc(CN[C@@H]5Cc6ccccc6[C@@H]5O)cc4)c3)nn2CCCN2CCOCC2)C1 [Example 445, (1S,2R)-2-({[4-({2-Chloro-5-[5-(methylsulfonyl)-1-(3-morpholin-4-ylpropyl)-4,5,6,7-tetrahydro-1H-pyrazolo[4,3-c]pyridin-3-yl]phenyl}ethynyl)phenyl]methyl}amino)-2,3-dihydro-1H-inden-1-ol]",6.70
9,"C[C@H]1COCCN1CCCn1nc(-c2ccc(Cl)c(C#Cc3ccc(Cl)c(CNCC(=O)O)c3)c2)c2c1CCNC2 [Example 553, N-[(2-Chloro-5-{[2-chloro-5-(1-{3-[(3S)-3-methylmorpholin-4-yl]propyl}-4,5,6,7-tetrahydro-1H-pyrazolo[4,3-c]pyridin-3-yl)phenyl]ethynyl}phenyl)methyl]glycine]",6.35
10,"C[C@H]1COCCN1CCCn1nc(-c2ccc(Cl)c(C#Cc3ccc(Cl)c(COC4CCN(C(=O)OC(C)(C)C)C4)c3)c2)c2c1CCN(C(=O)C(N)=O)C2 (stereo partly drawn) [Example 559, tert-Butyl 3-[(5-{[5-(5-[amino(oxo)acetyl]-1-{3-[(3S)-3-methylmorpholin-4-yl]propyl}-4,5,6,7-tetrahydro-1H-pyrazolo[4,3-c]pyridin-3-yl)-2-chlorophenyl]ethynyl}-2-chlorobenzyl)oxy]pyrrolidine-1-carboxylate]",7.00

# Same assay, conditions: CatS IC50
row,SMILES,pIC50
1,"CS(=O)(=O)N1CCc2c(c(-c3ccc(Cl)c(C#Cc4ccc(CN[C@H](CO)c5ccccc5)cc4)c3)nn2CCCN2CCOCC2)C1 [Example 342, (2S)-2-({[4-({2-Chloro-5-[5-(methylsulfonyl)-1-(3-morpholin-4-ylpropyl)-4,5,6,7-tetrahydro-1H-pyrazolo[4,3-c]pyridin-3-yl]phenyl}ethynyl)phenyl]methyl}amino)-2-phenylethanol]",6.51
2,"COc1ccc(C#Cc2cc(-c3nn(CCCN4CCOCC4)c4c3CN(S(C)(=O)=O)CC4)ccc2Cl)cc1 [Example 32, 3-[4-Chloro-3-(4-methoxy-phenylethynyl)-phenyl]-5-methanesulfonyl-1-(3-morpholin-4-yl-propyl)-4,5,6,7-tetrahydro-1H-pyrazolo[4,3-c]pyridine]",6.31
3,"NC(=O)C(=O)N1CCc2c(c(-c3ccc(Cl)c(C#Cc4ccc(CNCc5ccc(Cl)cc5)cc4)c3)nn2C[C@H](O)CN2CCOCC2)C1 [Example 254, (R)-2-[3-(4-Chloro-3-{4-[(4-chloro-benzylamino)-methyl]-phenylethynyl}-phenyl)-1-(2-hydroxy-3-morpholin-4-yl-propyl)-1,4,6,7-tetrahydro-pyrazolo[4,3-c]pyridin-5-yl]-2-oxo-acetamide]",6.62
4,"CS(=O)(=O)N1CCc2c(c(-c3ccc(Cl)c(C#CC4CCCCC4)c3)nn2CCCN2CCOCC2)C1 [Example 48, 3-(4-Chloro-3-cyclohexylethynyl-phenyl)-5-methanesulfonyl-1-(3-morpholin-4-yl-propyl)-4,5,6,7-tetrahydro-1H-pyrazolo[4,3-c]pyridine]",5.17
5,"CS(=O)(=O)N1CCc2c(c(-c3ccc(Cl)c(C#Cc4ccc(CNCC(F)(F)F)cc4)c3)nn2CCCN2CCN(c3ccccc3)CC2)C1 [Example 480, N-({4-[(2-Chloro-5-{5-(methylsulfonyl)-1-[3-(4-phenylpiperazin-1-yl)propyl]-4,5,6,7-tetrahydro-1H-pyrazolo[4,3-c]pyridin-3-yl}phenyl)ethynyl]phenyl}methyl)-2,2,2-trifluoroethanamine]",7.00
6,"CS(=O)(=O)N1CCc2c(c(-c3ccc(Cl)c(C#Cc4ccc5c(c4)CN[C@@H](C(=O)N4CCCC4)C5)c3)nn2CCCN2CCOCC2)C1 [Example 196, (3R)-7-({2-Chloro-5-[5-(methylsulfonyl)-1-(3-morpholin-4-ylpropyl)-4,5,6,7-tetrahydro-1H-pyrazolo[4,3-c]pyridin-3-yl]phenyl}ethynyl)-3-(pyrrolidin-1-ylcarbonyl)-1,2,3,4-tetrahydroisoquinoline]",6.19
7,"CC(C)(C)C1CCN(CCCn2nc(-c3ccc(Cl)c(C#Cc4ccc5c(c4)CNCC5)c3)c3c2CCN(S(C)(=O)=O)C3)CC1 [Example 378, 7-({2-Chloro-5-[1-{3-[4-(1,1-dimethylethyl)piperidin-1-yl]propyl}-5-(methylsulfonyl)-4,5,6,7-tetrahydro-1H-pyrazolo[4,3-c]pyridin-3-yl]phenyl}ethynyl)-1,2,3,4-tetrahydroisoquinoline]",7.10
8,"O=C(c1ccccn1)N1CCc2c(c(-c3ccc(Cl)c(C#Cc4ccc(Cl)cc4)c3)nn2CCCN2CCOCC2)C1 [Example 137, [3-[4-Chloro-3-(4-chloro-phenylethynyl)-phenyl]-1-(3-morpholin-4-yl-propyl)-1,4,6,7-tetrahydro-pyrazolo[4,3-c]pyridin-5-yl]-pyridin-2-yl-methanone]",6.85
9,"C[C@H]1COCCN1CCCn1nc(-c2ccc(Cl)c(C#Cc3ccc(F)c(CNCc4ccccc4)c3)c2)c2c1CCN(S(C)(=O)=O)C2 [Example 539, 1-[5-({2-Chloro-5-[1-{3-[(3S)-3-methylmorpholin-4-yl]propyl}-5-(methylsulfonyl)-4,5,6,7-tetrahydro-1H-pyrazolo[4,3-c]pyridin-3-yl]phenyl}ethynyl)-2-fluorophenyl]-N-(phenylmethyl)methanamine]",6.68
10,"CC(C)CN1CCc2cc(C#Cc3cc(-c4nn(CCCN5CCOCC5)c5c4CN(S(C)(=O)=O)CC5)ccc3Cl)ccc2C1 [Example 523, 6-({2-Chloro-5-[5-(methylsulfonyl)-1-(3-morpholin-4-ylpropyl)-4,5,6,7-tetrahydro-1H-pyrazolo[4,3-c]pyridin-3-yl]phenyl}ethynyl)-2-(2-methylpropyl)-1,2,3,4-tetrahydroisoquinoline]",6.28
11,"CS(=O)(=O)N1CCc2c(c(-c3ccc(Cl)c(C#Cc4ccc(CNCc5ccc(Cl)cc5)cc4)c3)nn2CCCN2CCC(N3CCCCC3=O)CC2)C1 [Example 338, 1′-{3-[3-(4-Chloro-3-{[4-({[(4-chlorophenyl)methyl]amino}methyl)phenyl]ethynyl}phenyl)-5-(methylsulfonyl)-4,5,6,7-tetrahydro-1H-pyrazolo[4,3-c]pyridin-1-yl]propyl}-1,4′-bipiperidin-2-one]",7.70
12,"NC(=O)N1CCc2c(c(-c3ccc(Cl)c(C#Cc4ccc(C(=O)N5CCCC5)cc4)c3)nn2CCCN2CCSCC2)C1 [Example 164, 3-(4-Chloro-3-{[4-(pyrrolidin-1-ylcarbonyl)phenyl]ethynyl}phenyl)-1-(3-thiomorpholin-4-ylpropyl)-1,4,6,7-tetrahydro-5H-pyrazolo[4,3-c]pyridine-5-carboxamide]",6.14
13,"CS(=O)(=O)N1CCc2c(c(-c3ccc(Cl)c(C#Cc4ccc(Cl)c(CNC5CCCC5)c4)c3)nn2CCCN2CCCCC2)C1 [Example 597, N-[2-Chloro-5-({2-chloro-5-[5-(methylsulfonyl)-1-(3-piperidin-1-ylpropyl)-4,5,6,7-tetrahydro-1H-pyrazolo[4,3-c]pyridin-3-yl]phenyl}ethynyl)benzyl]cyclopentanamine]",7.40
